ChEMBL document CHEMBL1133765, “QSAR model for drug human oral bioavailability” (J Med Chem, 2000)

Assays:
clinical = settings: human, in vivo, po
physchem [1] = settings: octanol/water, pH 6.5
physchem [2] = experiment: physchem
[3] = octanol/water

CCCNC1CCc2nc(N)sc2C1 (stereo unspecified)
bioavailability (clinical; F): ≥ 80%
logD (physchem [1]): -2.9
pKa (physchem [2]): 11
delta logD [3]: -0.9

NC(=O)CCCCc1ccccc1
bioavailability (clinical; F): ≥ 80%
logD (physchem [1]): 0.13
delta logD [3]: 0

O=[N+]([O-])C1O[C@H]2[C@H](OC[C@@H]2O)[C@@H]1O (stereo partly specified)
bioavailability (clinical; F): ≥ 80%
logD (physchem [1]): -0.4
delta logD [3]: 0

O=[N+]([O-])C1O[C@H]2[C@H](OC[C@H]2O)[C@H]1O (stereo partly specified)
bioavailability (clinical; F): ≥ 80%
logD (physchem [1]): -0.15
delta logD [3]: 0

CCO [ALCOHOL]
bioavailability (clinical; F): > 80%

Oc1ncnc2[nH]ncc12 [ALLOPURINOL]
bioavailability (clinical): ≥ 80%
logD (physchem [1]): -0.55
delta logD [3]: 0

C=CCc1ccccc1OCC(O)CNC(C)C (stereo unspecified) [ALPRENOLOL]
bioavailability (clinical; F): ≤ 20%
logD (physchem [1]): 0.4
delta logD [3]: -0.89

CCC1(CCC(C)C)C(=O)NC(=O)NC1=O [AMOBARBITAL]
bioavailability (clinical): ≥ 80%
logD (physchem [1]): 2.05
delta logD [3]: 0.13

CC(C)NCC(O)COc1ccc(COCCOC(C)C)cc1 (stereo unspecified) [BISOPROLOL]
logD (physchem [1]): -0.83
pKa (physchem [2]): 9.2
delta logD [3]: -0.89

CCCCNc1cc(C(=O)O)cc(S(N)(=O)=O)c1Oc1ccccc1 [BUMETANIDE]
bioavailability (clinical; F): ≥ 80%
logD (physchem [1]): -1.84
delta logD [3]: 0.9

NC(=O)N1c2ccccc2C=Cc2ccccc21 [CARBAMAZEPINE]
bioavailability (clinical; F): ≥ 80%
delta logD [3]: 0

CC(C)(C)NCC(O)COc1cccc2c1CCC(=O)N2 (stereo unspecified) [CARTEOLOL]
bioavailability (clinical; F): ≥ 80%
logD (physchem [1]): -1.35
pKa (physchem [2]): 9.2
delta logD [3]: -0.89

CN(C)CCC(c1ccc(Cl)cc1)c1ccccn1 (stereo unspecified) [CHLORPHENIRAMINE]
logD (physchem [1]): 0.69
delta logD [3]: -0.89

CCCNC(=O)NS(=O)(=O)c1ccc(Cl)cc1 [CHLORPROPAMIDE]
bioavailability (clinical; F): ≥ 80%
logD (physchem [1]): 0.76
pKa (physchem [2]): 5
delta logD [3]: 0.89

CN1C(=O)CC(=O)N(c2ccccc2)c2cc(Cl)ccc21 [CLOBAZAM]
bioavailability (clinical): ≥ 80%
logD (physchem [1]): 0.95
delta logD [3]: 0

CN(C)CCCN1c2ccccc2CCc2ccc(Cl)cc21 [CLOMIPRAMINE]
logD (physchem [1]): 2.49

O=c1ccc2ccccc2o1 [COUMARIN]
bioavailability (clinical; F): < 20%

CC1=NS(=O)(=O)c2cc(Cl)ccc2N1 [DIAZOXIDE]
bioavailability (clinical; F): ≥ 80%
logD (physchem [1]): 1.2
pKa (physchem [2]): 8.5
delta logD [3]: 0.03

CC(C)N(CCC(C(N)=O)(c1ccccc1)c1ccccn1)C(C)C (stereo unspecified) [DISOPYRAMIDE]
bioavailability (clinical): ≥ 80%
logD (physchem [1]): -1.08
pKa (physchem [2]): 10.4
delta logD [3]: -0.9

N#Cc1ccccc1OCC(O)CNCCNC(=O)Cc1ccc(O)cc1 (stereo unspecified) [EPANOLOL]
bioavailability (clinical; F): ≤ 20%
logD (physchem [1]): -0.4
pKa (physchem [2]): 7.8
delta logD [3]: -0.77

CCc1cccc2c3c([nH]c12)C(CC)(CC(=O)O)OCC3 (stereo unspecified) [ETODOLAC]
bioavailability (clinical; F): ≥ 80%
pKa (physchem [2]): 4.7

O=C(NCC1CCCCN1)c1cc(OCC(F)(F)F)ccc1OCC(F)(F)F (stereo unspecified) [FLECAINIDE]
bioavailability (clinical; F): ≥ 80%
logD (physchem [1]): 0.24
delta logD [3]: -0.9

CC(C(=O)O)c1ccc(-c2ccccc2)c(F)c1 (stereo unspecified) [FLURBIPROFEN]
bioavailability (clinical): ≥ 80%
logD (physchem [1]): 1.81
pKa (physchem [2]): 4.2
delta logD [3]: 0.9

Cc1ccc(C)c(OCCCC(C)(C)C(=O)O)c1 [GEMFIBROZIL]
bioavailability (clinical; F): ≥ 80%
logD (physchem [1]): 1.47
pKa (physchem [2]): 4.8
delta logD [3]: 0.89

COc1ccc(Cl)cc1C(=O)NCCc1ccc(S(=O)(=O)NC(=O)NC2CCCCC2)cc1 [GLYBURIDE]
bioavailability (clinical; F): ≥ 80%
logD (physchem [1]): 1.85
pKa (physchem [2]): 5.3
delta logD [3]: 0.87

CN1C(=O)NC(=O)C(C)(C2=CCCCC2)C1=O (stereo unspecified) [HEXOBARBITAL]
bioavailability (clinical): ≥ 80%
logD (physchem [1]): 1.48
pKa (physchem [2]): 8.3
delta logD [3]: 0.04

NNc1nncc2ccccc12 [HYDRALAZINE]
bioavailability (clinical; F): ≤ 20%
logD (physchem [1]): 0.14
delta logD [3]: -0.61

Nc1cc(-c2ccncc2)c[nH]c1=O [INAMRINONE]
bioavailability (clinical; F): ≥ 80%
logD (physchem [1]): -0.72
pKa (physchem [2]): 5.2
delta logD [3]: -0.02

CNC1(c2ccccc2Cl)CCCCC1=O (stereo unspecified) [KETAMINE]
bioavailability (clinical): ≤ 20%
logD (physchem [1]): 1.14

O=C(c1ccccc1)c1ccc2n1CCC2C(=O)O (stereo unspecified) [KETOROLAC]
bioavailability (clinical; F): ≥ 80%
logD (physchem [1]): -1.34
delta logD [3]: 0.9

Cc1c(OCC(F)(F)F)ccnc1C[S+]([O-])c1nc2ccccc2[nH]1 (stereo unspecified) [LANSOPRAZOLE]
bioavailability (clinical): ≥ 80%
logD (physchem [1]): 1.73

CN(CCCN1c2ccccc2CCc2ccccc21)CC(=O)c1ccc(Cl)cc1 [LOFEPRAMINE]
bioavailability (clinical; F): ≤ 20%
logD (physchem [1]): 4.58
pKa (physchem [2]): 6.7
delta logD [3]: -0.32

O=C1Nc2ccc(Cl)cc2C(c2ccccc2Cl)=NC1O (stereo unspecified) [LORAZEPAM]
bioavailability (clinical): ≥ 80%
delta logD [3]: 0

CC[C@H](C)C(=O)O[C@H]1C[C@@H](C)C=C2C=C[C@H](C)[C@H](CC[C@@H]3C[C@@H](O)CC(=O)O3)[C@H]21 [LOVASTATIN]
logD (physchem [1]): 4.26
delta logD [3]: 0

CC(C)(C)NCC(O)c1cc(Cl)c(N)c(C(F)(F)F)c1 (stereo unspecified) [MABUTEROL]
bioavailability (clinical): ≥ 80%
logD (physchem [1]): -0.03
pKa (physchem [2]): 9.7
delta logD [3]: -0.9

COC(=O)Nc1nc2ccc(C(=O)c3ccccc3)cc2[nH]1 [MEBENDAZOLE]
bioavailability (clinical; F): ≤ 20%
logD (physchem [1]): 2.83
delta logD [3]: 0

CCC1(c2cccc(O)c2)CCCCN(C)C1 (stereo unspecified) [MEPTAZINOL]
bioavailability (clinical): ≤ 20%
logD (physchem [1]): 0.71
pKa (physchem [2]): 8.7
delta logD [3]: -0.88

Sc1ncnc2nc[nH]c12 [MERCAPTOPURINE ANHYDROUS]
bioavailability (clinical; F): ≤ 20%
logD (physchem [1]): -1.12
pKa (physchem [2]): 7.6
delta logD [3]: -0.72

Cc1ncc([N+](=O)[O-])n1CCO [METRONIDAZOLE]
bioavailability (clinical; F): ≥ 80%
delta logD [3]: 0

Cc1[nH]c(=O)c(C#N)cc1-c1ccncc1 [MILRINONE]
bioavailability (clinical; F): ≥ 80%
logD (physchem [1]): 0.68
pKa (physchem [2]): 5.2
delta logD [3]: -0.02

COc1ccc2cc(CCC(C)=O)ccc2c1 [NABUMETONE]
bioavailability (clinical; F): ≤ 20%
logD (physchem [1]): 2.83
delta logD [3]: 0

Cc1ccnc2c1NC(=O)c1cccnc1N2C1CC1 [NEVIRAPINE]
bioavailability (clinical): ≥ 80%
logD (physchem [1]): 1.92

COC(=O)C1=C(C)NC(C)=C(C(=O)OC)C1c1ccccc1[N+](=O)[O-] [NIFEDIPINE]
bioavailability (clinical): 79%

O=C(O)CCc1nc(-c2ccccc2)c(-c2ccccc2)o1 [OXAPROZIN]
bioavailability (clinical; F): ≥ 80%
logD (physchem [1]): 3.41
pKa (physchem [2]): 5.8
delta logD [3]: 0.84

O=C1OC(c2ccc(O)cc2)(c2ccc(O)cc2)c2ccccc21 [PHENOLPHTHALEIN]
bioavailability (clinical; F): ≤ 20%
logD (physchem [1]): 2.41
delta logD [3]: 0

CC1CCCC(C)N1CCCC(O)(c1ccccc1)c1ccccn1 (stereo unspecified) [PIRMENOL]
bioavailability (clinical; F): ≥ 80%
logD (physchem [1]): -0.53
pKa (physchem [2]): 10.2
delta logD [3]: -0.9

Nc1ccc(S(=O)(=O)Nc2ncccn2)cc1 [SULFADIAZINE]
bioavailability (clinical; F): ≥ 80%
logD (physchem [1]): -0.39
delta logD [3]: 0.65

Cc1cccc(C)c1NC(=O)C(C)N (stereo unspecified) [TOCAINIDE]
bioavailability (clinical; F): ≥ 80%
logD (physchem [1]): -0.56
delta logD [3]: -0.78

CCCCNC(=O)NS(=O)(=O)c1ccc(C)cc1 [TOLBUTAMIDE]
bioavailability (clinical; F): ≥ 80%
pKa (physchem [2]): 5.3

Cc1ccc(C(=O)c2ccc(CC(=O)O)n2C)cc1 [TOLMETIN]
bioavailability (clinical; F): ≥ 80%
logD (physchem [1]): -0.21
delta logD [3]: 0.9

COc1cc(Cc2cnc(N)nc2N)cc(OC)c1OC [TRIMETHOPRIM]
bioavailability (clinical; F): > 80%

CCCC(CCC)C(=O)O [VALPROIC ACID]
bioavailability (clinical; F): ≥ 80%
logD (physchem [1]): 1.04
delta logD [3]: 0.89

COc1ccc(C(CN(C)C)C2(O)CCCCC2)cc1 (stereo unspecified) [VENLAFAXINE]
bioavailability (clinical): ≤ 20%
logD (physchem [1]): -2.29
